In patent US20140187594A1, “DIPHENYL ETHER COMPOUNDS FOR THE TREATMENT OF LIVER, LUNG DISORDERS, DIABETIC COMPLICATIONS AND CARDIOVASCULAR DISEASES” (ORCHID CHEMICALS AND PHARMACEUTICALS LTD, priority 2010, published 2014):
Entries after “also recorded” stand apart in the source; their conditions may differ.

Tested on: NAFLD/NASH mice
Assay: Supranutritional diet induced NAFLD/NASH (and DIO/NAFLD) models
Type: in vivo, C57BL/6 mice
Method: A rodent obese and NAFLD model was developed by feeding supranutritional diet, which simulates several features of human obesity and NAFLD. These features were treated as mentioned below. […] C57BL/6 male mice aged at 6-8 weeks, body weight ranges between 16-22 g were used for this study. Animals were divided into two groups. First group (n=8, where n refers to number of animals) was treated as a normal control fed with chow feed (Nutri Lab® Rodent, Tetragon Chemie Pvt. Ltd., Bangalore) and the second group (n=20) was treated with 60 Kcal % high fat diet (HFD) (Research Diets, New Brunswick, N.J., Cat# D12492 with blue dye) for 90 days. Animals were selected based on their body weight. The Animals fed with normal chow diet (n=8) served as normal control (Group I) and animals fed with HFD were divided into two groups as DIO/NAFLD control (Group II) (n=10), and Group III (n=9) treated with compound formula (A) at 100 mg/kg for 28 days. During this period, animal body weight and feed intake was recorded daily.
A rodent NAFLD/NASH model was developed by feeding supranutritional diet which simulates several features of human NAFLD/NASH. These features were treated as mentioned below. Fifty C57BL/6 male mice aged 6-8 weeks, and body weight ranges between 16-36 g were used for this study. Animals were divided into two groups, first group (n=10) treated as a normal control, was fed with chow feed (Nutri Lab® Rodent, Tetragon Chemie Pvt. Ltd., Bangalore) and the second group (n=40) fed with 60 Kcal % HFD (Research Diets, New Brunswick, N.J., Cat# D12492 with blue dye) and 40% high fructose liquid (HFL) for 60 days. After 45 days, two animals from disease induction and normal control groups were sacrificed; liver histopathology examination was carried out to confirm the induction of NAFLD/NASH. Animals fed with normal chow diet served as a normal control (Group I) and animals fed HFD and HFL were divided into three groups (n=6-8) as NAFLD/NASH control (Group II), Group III and Group IV were dosed with compound of formula (A) and Metformin at 100 and 350 mg/kg p.o respectively for 28 days. On 28th day, animals were kept 12 hours fasting and 29th day blood was collected, plasma separated and used for biochemical and compound concentration analysis. The animals were then sacrificed. Liver was collected and weighed. Liver tissues were used for compound concentration analysis, triglycerides estimation and histopathology examination. Gross pathology of liver was also observed. Experiment-3: Effect of Compound of formula (A) in NAFLD/NASH mice
The experiment-2 protocol was followed. There compound of formula (A) was compared with other antidiabetic compounds (Figures-8-13).
To develop NAFLD/NASH model, the same protocol was followed as mentioned in Experiment-2. At the end of induction period the animals were grouped as follows. Animals fed with normal chow diet (n=9) served as Normal control (Group 1) and animals fed HFD and HFL were divided into four groups (n=9-12) as NAFLD/NASH control (Group II), Groups III, IV, and V were treated with compound of formula (A) at 10, 30 and 100 mg/kg p.o. respectively for 28 days. After 28 days of treatment animals were kept for 12 hours fasting and blood was collected for biochemical estimations. Following blood collection, animals were sacrificed, liver was collected and weighed. Liver tissues were used for compound concentration analysis, TG estimation and histopathological examination. Gross pathology of liver was also observed. […]

COC(=O)[C@@H](N)Cc1ccc(Oc2ccc(CC3SC(=O)NC3=O)cc2)cc1 (stereo partly drawn) [Compound of formula (A), Methyl(2S)-2-amino-3-(4-{4-[(2,4-dioxo-1,3-thiazolidin-5-yl)methyl]phenoxy}phenyl)propanoate]
liver histopathology (Hepatic steatosis) ((A) up to 100 mg/kg, disodium salt of (C) 30 mg/kg p.o., 28 days, FIGS. 6, 7, 12, 13, 19, 20, 21, 24, 25, 30, 31 & 32): reduction; also recorded: improvement in liver histopathology | plasma AST (vs untreated disease control, FIG. 17): reduction | body weight (vs untreated disease control, FIGS. 1, 2, 8, 16 & 23): reduction in body weight | glucose (fasted) (vs untreated disease control, FIGS. 5 & 9): reduction | plasma ALT (vs untreated disease control, FIGS. 10 & 18): reduction
